The record followed here is article PMC12024234, “Antioxidant, Anti-Inflammatory, and Oral Bioavailability of Novel Sulfonamide Derivatives of Gallic Acid” (Antioxidants, 2025).

“Also recorded” adds a separate entry of the source.

Data set [1] deals with T1, CYP2D6 (Homo sapiens, UniProt P10635).
T1 construct: purchased Sigma Aldrich C4982
The data set can be described thus: Metabolism by cytochrome P450 2D6 (CypExpress), HPLC. It counts as in vitro ADME. Conditions: 4 h. The procedure: The enzymatic activity of cytochrome P450 2D6 (CYP2D6) was evaluated following the CypExpress protocol (C4982, Sigma Aldrich, Darmstadt, Germany). The reaction buffer consisted of 5 mM glucose-6-phosphate (G6P), 2 mM nicotinamide adenine dinucleotide phosphate (NADP+), and 3,4,5-TMBS prepared in PBS at concentrations of 1000 and 1500 µM. Diltiazem was used as a positive control. The reaction was initiated by adding CYP2D6, and the mixture was vortexed for 5 min. The samples were then incubated at 37 °C with gentle shaking at 100 rpm for 4 h. The reaction was terminated by adding acetonitrile, followed by centrifugation at 800 rpm for 10 min. The supernatant was collected and analyzed using HPLC.

Data set [2] deals with T1, CYP2D6. The description is as above. It counts as in vitro ADME.
A short description of data set [3]: Oral bioavailability / pharmacokinetics in rats. Type of data set: in vivo, Sprague Dawley rats. Particulars: rat serum; for Tmax: rat, serum, po. On the procedure:
Male Sprague Dawley rats, aged 7–9 weeks and weighing 220 ± 20 g on average, were used for bioavailability studies. The animals were housed in the Laboratory Animal Research Unit at the University of Petra Pharmaceutical Center under controlled conditions: a temperature of 23 ± 2 °C, humidity of 55–65%, and a 12 h light/dark cycle. Prior to the experiments, the rats underwent a 10-day acclimatization period with free access to standard food and water. All procedures complied with the University of Petra’s animal use guidelines, which adhere to the standards of the Federation of European Laboratory Animal Sciences Association (FELASA). The rats were divided into three groups (n = 6 per group) and administered suspensions of GA, 3,4,5-TMBS, or 3,4,5-THBS prepared in 5% carboxymethylcellulose. Each compound was administered orally at a dose of 100 mg/kg, based on previous studies. Blood samples were collected from the retro-orbital plexus at 0.5, 1, 2, 3, 4, 6, 10, and 24 h post-administration. The samples were centrifuged at 5000 rpm for 10 min, and the serum was mixed with acetonitrile in a 1:3 ratio. After a second centrifugation at 5000 rpm for 15 min, the supernatant was collected for high-performance liquid chromatography (HPLC) analysis. HPLC analysis was conducted using a Shimadzu Class VP series system equipped with an LC-10AT VP pump, an SIL-10AD VP autosampler, and an SCL-10AVP system (Shimadzu, Kyoto, Japan). A C18 column (25 cm × 4.6 mm, 5 μm) was used, with a photodiode array detector set to a wavelength range of 200–400 nm. The mobile phase for TMBS and THBS consisted of a 50:50 (v/v) mixture of deionized water and acetonitrile containing 0.1% trifluoroacetic acid, flowing at 1 mL/min. For GA, the mobile phase was a 70:30 mixture of methanol and a water/sulfuric acid solution (100:2), also at a flow rate of 1 mL/min. The retention times for THBS and TMBS were 2.39 and 3.47 min, respectively, while GA eluted at 2.4 min, all detected at 254 nm. Results were analyzed using Lab Solution Software LC (version 5.3) and represent the average of three measurements.

The test system of the next data set is HIEC-6 cells. The data set can be described thus: Cell viability CCK-8 assay in HIEC-6. It counts as cell-based, Human. Conditions: 24 h incubation. On the procedure: Human intestinal epithelial cells (HIEC-6), originally obtained from the American Type Culture Collection (ATCC), were cultured in Opti-MEM™ I Reduced Serum Medium (Cat. No. 31985) supplemented with 20 mM HEPES, 10 mM L-glutamine, 10 ng/mL epidermal growth factor, and 4% fetal bovine serum (FBS) (New York, NY, USA). Cells were maintained in a humidified 5% CO2 incubator at 37 °C. Cell viability was assessed using the CCK-8 assay, a colorimetric method based on the reduction of water-soluble tetrazolium salts (WST-8) to a water-soluble formazan dye, with the resulting color intensity proportional to the number of viable cells. Briefly, cells were harvested at approximately 80% confluence, detached using trypsin-EDTA, and centrifuged at 1000 rpm for 5 min. The cell pellet was resuspended in fresh medium, and the density was adjusted to 1 × 10^6 cells/mL. A volume of 100 µL (1 × 10^5 cells/well) was seeded into a 96-well plate, with one well containing the medium only as background control. […] Subsequently, 10 µL of CCK-8 reagent was added to each well, and the plate was incubated for 4 h. Absorbance was measured at 450 nm using a microplate reader, results are expressed as the mean ± standard deviation (SD).

The next data set concerns the target T2, COX-2 (Homo sapiens, UniProt P35354).
T2 construct: endogenous in cells; host or cells: HIEC-6 cell lysate
T2 sequence (P35354 18-604): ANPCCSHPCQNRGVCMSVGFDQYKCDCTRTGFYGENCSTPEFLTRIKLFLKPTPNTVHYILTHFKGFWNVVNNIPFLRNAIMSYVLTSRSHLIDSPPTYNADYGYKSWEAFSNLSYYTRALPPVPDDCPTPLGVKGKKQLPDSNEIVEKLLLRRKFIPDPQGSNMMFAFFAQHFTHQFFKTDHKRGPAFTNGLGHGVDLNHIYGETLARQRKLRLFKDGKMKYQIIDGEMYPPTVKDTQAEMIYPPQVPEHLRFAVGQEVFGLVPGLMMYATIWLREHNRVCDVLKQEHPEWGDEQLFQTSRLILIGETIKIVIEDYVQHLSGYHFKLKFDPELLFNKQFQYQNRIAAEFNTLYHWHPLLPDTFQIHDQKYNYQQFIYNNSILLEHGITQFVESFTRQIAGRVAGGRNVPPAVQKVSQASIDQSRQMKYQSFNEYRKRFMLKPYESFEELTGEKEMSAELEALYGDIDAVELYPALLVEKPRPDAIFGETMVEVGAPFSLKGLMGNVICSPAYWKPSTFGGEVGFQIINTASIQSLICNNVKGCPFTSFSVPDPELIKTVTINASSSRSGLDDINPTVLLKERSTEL
In words: Cyclooxygenase (COX-2) activity assay in HIEC-6 cell lysate. Type of data set: biochemical. On the procedure: Cyclooxygenase (COX-2) activity assay was performed in HIEC-6 cells according to the manufacturer’s instructions (ab204699). Resorufin standards (0–20 pmol/well) were used to generate a calibration curve for quantifying sample concentrations. HIEC-6 cells were centrifuged at 500× g for 3 min and washed with PBS. The cell pellet was lysed in an ice-cold lysis buffer containing 10% Triton X-100 and a protease inhibitor cocktail in PBS for 5 min. The lysate was then centrifuged at 12,000× g for 3 min at 4 °C, and the supernatant was collected and kept on ice. Protein concentration in the supernatant was determined using a Bradford assay, with a bovine serum albumin standard curve (0–2000 µg/mL). […] This mixture was added to a 96-well plate, and the reaction was initiated by adding arachidonic acid (COX-2 substrate) dissolved in NaOH solution. The enzymatic reaction produced fluorescent resorufin dye, which was measured at excitation/emission wavelengths of λEx/Em = 535/587 nm.

Data set [4] can be described thus: DPPH radical scavenging assay. The procedure:
The antioxidant properties of the compounds under study were examined using the 2,2-Diphenyl-1-picrylhydrazyl (DPPH) assay, following a well-established protocol. A DPPH solution was prepared at a concentration of 0.1 mM in methanol. […] To ensure proper reaction, the mixtures were kept in the dark and incubated at room temperature for 30 min. After incubation, the absorbance of each sample was measured at 517 nm using a UV-VIS spectrophotometer. Gallic acid was used as the reference standard, and methanol served as the blank control.
The ability of the compounds to scavenge free radicals was determined by observing the reduction of DPPH at 517 nm, with lower absorbance values indicating higher antioxidant activity. The half-maximal inhibitory concentration (IC50), defined as the concentration of the compound needed to neutralize 50% of the DPPH radicals, was calculated from the dose–response curve. All experiments were performed in triplicate, and the results are reported as the mean of three independent trials. This method is widely recognized for its reliability and reproducibility in evaluating the antioxidant potential of chemical compounds.

[5] abbreviates: male, Sprague Dawley, 100 mg/kg, n = 6.

T1 sequence (P10635 whole entry): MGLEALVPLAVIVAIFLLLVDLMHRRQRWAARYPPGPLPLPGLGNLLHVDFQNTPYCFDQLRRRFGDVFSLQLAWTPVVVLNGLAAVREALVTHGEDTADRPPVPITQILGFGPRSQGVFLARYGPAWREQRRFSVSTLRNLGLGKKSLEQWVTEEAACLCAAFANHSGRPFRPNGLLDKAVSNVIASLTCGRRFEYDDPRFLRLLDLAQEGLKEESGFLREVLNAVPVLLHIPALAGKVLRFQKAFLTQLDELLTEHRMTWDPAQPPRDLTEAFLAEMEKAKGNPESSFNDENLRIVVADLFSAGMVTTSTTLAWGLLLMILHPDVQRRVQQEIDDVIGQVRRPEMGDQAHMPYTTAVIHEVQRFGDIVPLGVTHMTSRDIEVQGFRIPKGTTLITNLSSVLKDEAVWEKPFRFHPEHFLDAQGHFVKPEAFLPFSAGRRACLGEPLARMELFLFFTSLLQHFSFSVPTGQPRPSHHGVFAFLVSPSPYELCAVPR

For `COc1ccc([C@@H]2Sc3ccccc3N(CCN(C)C)C(=O)[C@@H]2OC(C)=O)cc1` [Diltiazem, reference compound], the Metabolism by CYP2D6 (concentration) is 849.91 ± 0.62 µM at CYP2D6 [1] (1000 µM); 1235 ± 6.02 µM on CYP2D6 [1] (1500 µM); 828 ± 21.7 µM at CYP2D6 [2] (1000 µM, 1 h); 829 ± 78.1 µM on CYP2D6 [2] (1000 µM, 3 h); 1287 ± 12.8 µM at CYP2D6 [2] (1500 µM, 1 h); 1460 ± 133 µM at CYP2D6 [2] (1500 µM, 3 h).
As usually defined, the Cmax is the highest concentration seen after dosing. In general, AUC(0-inf) refers to the area under the concentration-time curve extrapolated to infinity. Low values mean less exposure, high ones more exposure. By AUC(0-t) is commonly meant exposure summed from dosing to a finite time, without extrapolation to infinity. The term CL/F denotes clearance divided by bioavailability, as obtained after extravascular dosing. The half-life is the time in which the quantity being followed falls by half. Broadly, the Tmax is the time at which the peak concentration occurs. A word on the IC50: it is the midpoint of a concentration-inhibition curve. Higher therefore signals a need for much substance. What is called EC50 is the concentration needed to bring the measured effect to its halfway point. The molecule `O=C(O)c1cc(O)c(O)c(O)c1` [GA, 3,4,5-trihydroxybenzoic acid, reference compound] showed a Cmax in data set [3] (male, Sprague Dawley, 100 mg/kg (table: 100 mg dose), n = 6) of 2140 ± 880 ng/mL. Moreover, in data set [3] (setting [5]), the AUC(0-inf) stood at 13000 ± 5620 ng·h/mL, the AUC(0-t) worked out at 9320 ± 4610 ng·h/mL, the CL/F is 148 mL/min/kg and the half-life is 3.6 ± 0.94 h. The Tmax in data set [3] (setting [5]) came out at 1.3 ± 0.22 h. For the same molecule, the MRT inf in data set [3] (male, Sprague Dawley, 100 mg/kg, n = 6, read-out: MRT0–∞) is 7.66 ± 2.99 h. For the same molecule, the Tmax in data set [3] (male, Sprague Dawley, 100 mg/kg) is 1.3 h. In addition, in data set [3] (100 mg/kg, n = 6), the Vz was 55.46 ± 23.99 (mg)/(μg/mL). The molecule also gave an IC50 in the data set with HIEC-6 cells of 47.6 ± 2.39 µM. In the data set with HIEC-6 cells (Homo sapiens, HIEC-6, 24 h), this molecule showed an IC50 of about 47 µM. Besides, the “COX-2 inhibition compared to ibuprofen” value at COX-2 (1 µM) was “weaker COX-2 inhibition than ibuprofen”. For the same molecule, the “COX-2 inhibition compared to ibuprofen” value at COX-2 (50 µM) is “low COX-2 inhibition effect; also recorded: weaker COX-2 inhibition than ibuprofen”. The molecule further gave an EC50 in data set [4] of about 30 µM. For the same molecule, the “DPPH radical scavenging activity” value in data set [4] (at 1000 µM) is on record as “exceeding 90%”. In data set [4] (at 1000 µM (abstract)), this molecule came in with an ROS scavenging activity of 96%.
